Literature values, collected in Sander's compilation of Henry's law constants.
Values joined by “and” are separate entries in the source; they are usually repeats but may differ in a detail not shown here. Equal values may be shown once.

Tests used:
[1] = Henry solubility constant Hcp at 298.15 K (mol/(m3 Pa)); conditions: cited value
[2] = Henry solubility constant Hcp at 293 K (mol/(m3 Pa)); conditions: reference: Nunn (1958); cited value
[3] = reference: Burkholder et al. (2015)
[4] = reference: Burkholder et al. (2019)
[5] = reference: Barcelo and Hennion (1997)
[6] = reference: Fogg and Sangster (2003)
[7] = reference: Sander et al. (2006)
[8] = reference: Sander et al. (2011)

Q: Which results are given for `CCCNCCC` [dipropylamine]?
A: Henry solubility constant Hcp ([1]; reference: Brockbank (2013)): 0.21; Henry solubility constant Hcp [1, 3]: 0.2; Henry solubility constant Hcp [1, 4]: 0.2

Q: Which results are given for `CON(C)C(=O)Nc1ccc(Cl)c(Cl)c1` [linuron]?
A: Henry solubility constant Hcp [1, 5]: 1.8; Henry solubility constant Hcp ([1]; reference: MacBean (2012b)): 5000

Q: With `C=COCC(F)(F)F` [(2,2,2-trifluoroethoxy)-ethene] as the compound, how does the “Henry solubility constant Hcp” value [1, 6] read?
A: 0.00054

Q: With `CC=C(C)C` [2-methyl-2-butene] as the compound, how does the “Henry solubility constant Hcp” value ([1]; reference: Brockbank (2013)) read?
A: 5.7e-05

Q: Which results are given for `O=NCl` [nitrosyl chloride]?
A: Henry solubility constant Hcp [1, 3]: > 0.00049; Henry solubility constant Hcp [1, 4]: > 0.00049

Q: What does the source list for `ClC=CCCl` [1,3-dichloropropene]?
A: Henry solubility constant Hcp [1, 5]: 2.4e-05; Henry solubility constant Hcp ([1]; reference: Goldstein (1982)): 0.0028; Henry solubility constant Hcp ([1]; reference: Horvath and Getzen (1999)): 0.0028

Q: Which results are given for `CCCCCOC(C)=O` [pentyl ethanoate]?
A: Henry solubility constant Hcp ([1]; reference: Brockbank (2013)): 0.025; Henry solubility constant Hcp ([1]; reference: Meynier et al. (2003)): 0.025

Q: For `CCCCCCC=O` [heptanal], which “Henry solubility constant Hcp” value ([1]; reference: Brockbank (2013)) is on record?
A: 0.034

Q: For `COC(=O)N(OC)c1ccccc1COc1ccn(-c2ccc(Cl)cc2)n1` [pyraclostrobine], which “Henry solubility constant Hcp” value ([1]; reference: MacBean (2012b)) is on record?
A: 190000

Q: Which “Henry solubility constant Hcp” value ([1]; reference: Brockbank (2013)) does the source give for `CCOC(=O)c1ccccc1` [ethyl benzoate] here?
A: 0.17

Q: With `Cc1cccc2ccccc12` [1-methylnaphthalene] as the compound, how does the “Henry solubility constant Hcp” value ([1]; reference: Brockbank (2013)) read?
A: 0.02

Q: What about the “Henry solubility constant Hcp” value [1, 6] of the same compound?
A: 0.022

Q: Which “Henry solubility constant Hcp” value [1, 3] does the source give for `CC(=O)O[O]` [peroxyacetyl radical] here?
A: < 0.00099

Q: And the “Henry solubility constant Hcp” value [1, 4]?
A: < 0.00099

Q: What about the “Henry solubility constant Hcp” value [1, 7] of the same compound?
A: < 0.00099

Q: And the “Henry solubility constant Hcp” value [1, 8]?
A: < 0.00099

Q: For `CCCCC(=O)CCCC` [5-nonanone], which “Henry solubility constant Hcp” value ([1]; reference: Brockbank (2013)) is on record?
A: 0.04

Q: Which “Henry solubility constant Hcp” value ([1]; reference: Brockbank (2013)) does the source give for `FC(F)(F)C(F)(F)C(F)(F)C(F)(F)C(F)(F)C(F)(F)F` [tetradecafluorohexane] here?
A: 9.3e-09

Q: Which results are given for `ClC1C(Cl)C(Cl)C(Cl)C(Cl)C1Cl` (stereo not drawn) [γ-1,2,3,4,5,6-hexachlorocyclohexane]?
A: Henry solubility constant Hcp ([1]; reference: McCarty (1980)): 31; Henry solubility constant Hcp ([1]; reference: Xiao et al. (2004)): 3.7 and 3.3

Q: With `CCCCOC(=O)CCC` [butyl butanoate] as the compound, how does the “Henry solubility constant Hcp” value ([1]; reference: Brockbank (2013)) read?
A: 0.017

Q: For `CC(C)NC(=O)N1CC(=O)N(c2cc(Cl)cc(Cl)c2)C1=O` [iprodione], which “Henry solubility constant Hcp” value [1, 5] is on record?
A: 710

Q: Which “Henry solubility constant Hcp” value ([1]; reference: Plyasunov et al. (2006)) does the source give for `N#CCCCC#N` [pentanedinitrile] here?
A: 780

Q: For `CC(C)N(C(=O)CCl)c1ccccc1` [propachlor], which “Henry solubility constant Hcp” value [1, 5] is on record?
A: 0.9

Q: Which “Henry solubility constant Hcp” value ([1]; reference: Brockbank (2013)) does the source give for `CCCCS` [1-butanethiol] here?
A: 0.0015

Q: For `CCCCCCCN` [1-heptanamine], which “Henry solubility constant Hcp” value ([1]; reference: Brockbank (2013)) is on record?
A: 0.28

Q: For `CCCc1ccccc1` [propylbenzene], which “Henry solubility constant Hcp” value ([1]; reference: Brockbank (2013)) is on record?
A: 0.00091

Q: For `Nc1ccccc1` [aminobenzene], which “Henry solubility constant Hcp” value ([1]; reference: Brockbank (2013)) is on record?
A: 4.9

Q: For `Cc1ccc(Br)cc1` [1-bromo-4-methylbenzene], which “Henry solubility constant Hcp” value ([1]; reference: Brockbank (2013)) is on record?
A: 0.0036

Q: Which results are given for `c1ccc2c(c1)Cc1ccccc1-2` [2,3-benzindene]?
A: Henry solubility constant Hcp ([1]; reference: Brockbank (2013)): 0.13; Henry solubility constant Hcp [1, 6]: 0.11; Henry solubility constant Hcp ([1]; reference: Goldstein (1982)): 0.084; Henry solubility constant Hcp ([1]; reference: HSDB (2015)): 0.099; Henry solubility constant Hcp ([1]; reference: McCarty (1980)): 0.047

Q: Which “Henry solubility constant Hcp” value ([1]; reference: Brockbank (2013)) does the source give for `O=C1CCCC1` [cyclopentanone] here?
A: 1.2

Q: With `CCCC(=O)CCC` [4-heptanone] as the compound, how does the “Henry solubility constant Hcp” value ([1]; reference: Brockbank (2013)) read?
A: 0.051

Q: Which “Henry solubility constant Hcp” value ([1]; reference: Brockbank (2013)) does the source give for `Cc1ccc(C)c(O)c1` [1-hydroxy-2,5-dimethylbenzene] here?
A: 8.2

Q: Which “Henry solubility constant Hcp” value ([1]; reference: Brockbank (2013)) does the source give for `c1ccc2cc3ccccc3cc2c1` [anthracene] here?
A: 0.33

Q: And the “Henry solubility constant Hcp” value [1, 6]?
A: 0.17

Q: What about the “Henry solubility constant Hcp” value ([1]; reference: Goldstein (1982)) of the same compound?
A: 0.35

Q: And the “Henry solubility constant Hcp” value ([1]; reference: McCarty (1980))?
A: 0.007

Q: What about the “Henry solubility constant Hcp” value ([1]; reference: Smith et al. (1981a)) of the same compound?
A: 0.1

Q: With `CCOO` [ethyl hydroperoxide] as the compound, how does the “Henry solubility constant Hcp” value ([1]; reference: Brockbank (2013)) read?
A: 3.3

Q: And the “Henry solubility constant Hcp” value [1, 3]?
A: 3.3

Q: And the “Henry solubility constant Hcp” value [1, 4]?
A: 3.3

Q: And the “Henry solubility constant Hcp” value [1, 8]?
A: 3.3

Q: Which “Henry solubility constant Hcp” value [1, 3] does the source give for `O=C(O)CBr` [bromoethanoic acid] here?
A: 1500

Q: What about the “Henry solubility constant Hcp” value [1, 4] of the same compound?
A: 1500

Q: What about the “Henry solubility constant Hcp” value [1, 8] of the same compound?
A: 1500

Q: Which “Henry solubility constant Hcp” value [1, 5] does the source give for `CCCN(CCC)c1c([N+](=O)[O-])cc(C(F)(F)F)cc1[N+](=O)[O-]` [trifluralin] here?
A: 0.0025

Q: What about the “Henry solubility constant Hcp” value ([1]; reference: HSDB (2015)) of the same compound?
A: 0.096

Q: Which “Henry solubility constant Hcp” value ([1]; reference: Brockbank (2013)) does the source give for `CCCCC(C)=O` [2-hexanone] here?
A: 0.11

Q: And the “Henry solubility constant Hcp” value ([1]; reference: Howard (1993))?
A: 0.1

Q: With `O=C=O` [carbon dioxide] as the compound, how does the “Henry solubility constant Hcp at 293 K” value [2] read?
A: 0.00039

Q: What about the “Henry solubility constant Hcp” value [1, 3] of the same compound?
A: 0.00034

Q: What about the “Henry solubility constant Hcp” value [1, 4] of the same compound?
A: 0.00034

Q: What about the “Henry solubility constant Hcp” value ([1]; reference: Carroll et al. (1991)) of the same compound?
A: 0.00034

Q: And the “Henry solubility constant Hcp” value ([1]; reference: Chen et al. (1979))?
A: 0.00034

Q: And the “Henry solubility constant Hcp” value ([1]; reference: Crovetto (1991))?
A: 0.00034

Q: What about the “Henry solubility constant Hcp” value ([1]; reference: Edwards et al. (1978)) of the same compound?
A: 0.00034

Q: And the “Henry solubility constant Hcp” value ([1]; reference: Lelieveld and Crutzen (1991))?
A: 0.00034

Q: And the “Henry solubility constant Hcp” value ([1]; reference: Pandis and Seinfeld (1989))?
A: 0.00034

Q: What about the “Henry solubility constant Hcp” value ([1]; reference: Perry and Chilton (1973)) of the same compound?
A: 0.00034

Q: What about the “Henry solubility constant Hcp” value [1, 7] of the same compound?
A: 0.00033

Q: What about the “Henry solubility constant Hcp” value [1, 8] of the same compound?
A: 0.00033

Q: What about the “Henry solubility constant Hcp” value ([1]; reference: Weiss (1974)) of the same compound?
A: 0.00034

Q: What about the “Henry solubility constant Hcp” value ([1]; reference: Yoo et al. (1986)) of the same compound?
A: 0.00034

Q: With `CCCN(CCC)C(=O)SCC` [S-ethyl dipropylthiocarbamate] as the compound, how does the “Henry solubility constant Hcp” value [1, 5] read?
A: 0.01

Q: Which “Henry solubility constant Hcp” value ([1]; reference: Brockbank (2013)) does the source give for `CCCCCCC(C)=O` [2-octanone] here?
A: 0.05

Q: With `CCCCOCC` [1-ethoxy-butane] as the compound, how does the “Henry solubility constant Hcp” value ([1]; reference: Brockbank (2013)) read?
A: 0.0076

Q: Which “Henry solubility constant Hcp” value ([1]; reference: Hine and Weimar (1965)) does the source give for `COC` [dimethyl ether] here?
A: 0.0098
